From paper doi:10.1101/2020.10.13.337410v3, “Agonist efficiency from concentration-response curves: structural implications and applications” (biorxiv, 2021) come the findings set out here.

This test deals with T1, adult-type mouse AChR (α1-GFP, β, δ, ε), whole-cell (Mus musculus, UniProt P02716+P04756+P20782).
T1 construct: gene Chrna1; alpha1 with GFP encoded between M3 and M4; transient expression in HEK293, GFP-sorted cells; pentamer; no background mutations; with Acetylcholine receptor subunit beta
Briefly: automated whole-cell patch clamp (IonFlux […]), concentration-response. Type of test: cell-based. (In general: The patch-clamp technique gives a direct electrical read-out from membranes.)

As a reminder, the EC50 is the concentration that produces a half-maximal response. Read a low EC50 as an effect from little substance.

T1 sequence (P20782 21-493): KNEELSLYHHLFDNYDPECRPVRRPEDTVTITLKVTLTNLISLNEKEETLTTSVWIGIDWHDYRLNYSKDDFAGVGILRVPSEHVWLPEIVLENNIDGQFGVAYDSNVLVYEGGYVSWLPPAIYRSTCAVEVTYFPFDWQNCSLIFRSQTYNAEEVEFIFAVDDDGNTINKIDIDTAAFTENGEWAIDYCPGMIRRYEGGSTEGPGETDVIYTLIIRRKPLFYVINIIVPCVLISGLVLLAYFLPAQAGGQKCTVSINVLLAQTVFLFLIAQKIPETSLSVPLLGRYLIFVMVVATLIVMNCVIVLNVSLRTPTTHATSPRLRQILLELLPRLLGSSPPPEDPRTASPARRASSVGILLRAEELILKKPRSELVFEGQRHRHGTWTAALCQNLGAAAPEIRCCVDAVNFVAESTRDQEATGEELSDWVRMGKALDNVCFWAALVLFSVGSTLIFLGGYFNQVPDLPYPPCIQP
T1 sequence (P02716 25-520): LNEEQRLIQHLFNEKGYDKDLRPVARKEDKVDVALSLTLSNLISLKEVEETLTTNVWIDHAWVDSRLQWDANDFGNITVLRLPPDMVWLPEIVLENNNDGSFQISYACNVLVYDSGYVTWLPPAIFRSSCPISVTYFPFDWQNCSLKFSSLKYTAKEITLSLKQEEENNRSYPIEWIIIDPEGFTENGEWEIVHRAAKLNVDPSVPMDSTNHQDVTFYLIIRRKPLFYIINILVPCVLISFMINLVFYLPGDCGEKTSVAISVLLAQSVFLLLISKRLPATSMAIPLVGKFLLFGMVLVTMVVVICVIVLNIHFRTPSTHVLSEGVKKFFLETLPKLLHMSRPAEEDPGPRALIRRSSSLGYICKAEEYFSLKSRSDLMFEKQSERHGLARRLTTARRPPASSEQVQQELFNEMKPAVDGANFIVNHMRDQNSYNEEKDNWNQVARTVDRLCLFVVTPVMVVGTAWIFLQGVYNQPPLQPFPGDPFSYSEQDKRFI
T1 sequence (P09690 24-501, further chain): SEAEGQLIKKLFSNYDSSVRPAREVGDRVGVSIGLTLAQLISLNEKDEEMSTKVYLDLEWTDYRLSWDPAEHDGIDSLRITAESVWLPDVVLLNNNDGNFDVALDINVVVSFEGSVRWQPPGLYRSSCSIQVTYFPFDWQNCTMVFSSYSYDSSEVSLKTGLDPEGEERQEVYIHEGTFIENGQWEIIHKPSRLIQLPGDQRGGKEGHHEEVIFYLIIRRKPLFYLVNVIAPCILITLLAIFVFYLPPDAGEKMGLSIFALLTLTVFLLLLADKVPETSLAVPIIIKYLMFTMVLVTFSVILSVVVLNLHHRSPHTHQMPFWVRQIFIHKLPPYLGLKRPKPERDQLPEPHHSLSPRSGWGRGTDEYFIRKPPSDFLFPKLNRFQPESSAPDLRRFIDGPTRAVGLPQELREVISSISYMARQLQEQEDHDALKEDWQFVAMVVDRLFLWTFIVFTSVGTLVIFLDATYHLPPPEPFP
T1 sequence (P04756 21-457): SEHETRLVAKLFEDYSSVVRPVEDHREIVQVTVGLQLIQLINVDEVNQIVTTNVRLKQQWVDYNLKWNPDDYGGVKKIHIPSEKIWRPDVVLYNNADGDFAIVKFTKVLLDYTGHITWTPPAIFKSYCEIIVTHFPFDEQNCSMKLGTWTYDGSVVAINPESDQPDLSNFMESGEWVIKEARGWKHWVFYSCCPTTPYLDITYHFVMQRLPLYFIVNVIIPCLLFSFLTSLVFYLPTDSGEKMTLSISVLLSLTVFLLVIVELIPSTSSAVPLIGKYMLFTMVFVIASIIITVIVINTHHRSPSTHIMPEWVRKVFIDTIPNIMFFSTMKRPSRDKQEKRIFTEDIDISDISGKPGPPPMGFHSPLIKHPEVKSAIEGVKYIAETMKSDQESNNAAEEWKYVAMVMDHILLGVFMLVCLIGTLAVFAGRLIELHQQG

As for `C[N+](C)(C)C` [TMA], the EC50 came out at 843 ± 110 µM.
On to `C[N+](C)(C)CCOC(N)=O` [CCh], for which the concentration for a half-maximal effect (EC50) turned out to be 72.2 ± 11 µM.
